# Data: patent publication US11149019B2, “Phenylpyridine derivative and pharmaceutical composition comprising the same” (Daewoong Pharmaceutical Co., Ltd., priority 2017, dated 2021)
# Experiments:
# BTK = target: T1, BTK (Homo sapiens, UniProt Q06187); assay: ADP-Glo + BTK Kinase enzyme system kit, inhibitory activity against BTK; type: biochemical; settings: BTK enzyme 1 ng/ul, ATP 10 μM, 30° C. for 1 hour, luminescence, duplicate
# T1 construct: purchased Promega Corporation
# Experimental: (§1) Inhibitory activities against BTK and ITK were measured for the compounds prepared in the above Examples as follows.
# The inhibitory activities against BTK were evaluated using ‘ADP-Glo™+BTK Kinase enzyme system’ kit (Promega Corporation). In a white 96-well plate, 10 ul of BTK enzyme prepared so as to have a final concentration of 1 ng/ul was mixed with 5 μl of compounds having a final concentration of […] the case of evaluating a single concentration of compound and a concentration of 1000, 300, 100, 30, 10, 3, 1, 0.3, 0.1 and 0.03 nM in the case of IC50 evaluation, and then reacted at room temperature for 15 minutes. 5 ul of substrate and 5 ul of ATP prepared so as to have a final concentration of 10 μM were added to the plate on which reactions were completed, and then allowed to react at 30° C. for 1 hour. All wells of the plate were treated with 25 ul of ADP-Glo™ reagent and allowed to react at 30° C. for 40 minutes. After that, all wells were treated with 50 ul of kinase detection buffer, and then reacted at 30° C. for 30 minutes under light shielding conditions. For the plate on which all reactions were completed, luminescence was measured and the results were calculated. Evaluation was carried out in duplicate, and negative control and positive control were calculated depending on whether or not the enzyme was added without treatment of the compound. The IC50 was calculated based on the calculated values.
# ITK = target: T2, ITK (Homo sapiens, UniProt Q08881); assay: ADP-Glo + ITK Kinase enzyme system kit, inhibitory activity against ITK; type: biochemical; settings: ITK enzyme 0.4 ng/ul, ATP final concentration of 25 ul, 30° C. for 1 hour, luminescence, duplicate
# T2 construct: purchased Promega Corporation
# T2 sequence (Q08881 1-620): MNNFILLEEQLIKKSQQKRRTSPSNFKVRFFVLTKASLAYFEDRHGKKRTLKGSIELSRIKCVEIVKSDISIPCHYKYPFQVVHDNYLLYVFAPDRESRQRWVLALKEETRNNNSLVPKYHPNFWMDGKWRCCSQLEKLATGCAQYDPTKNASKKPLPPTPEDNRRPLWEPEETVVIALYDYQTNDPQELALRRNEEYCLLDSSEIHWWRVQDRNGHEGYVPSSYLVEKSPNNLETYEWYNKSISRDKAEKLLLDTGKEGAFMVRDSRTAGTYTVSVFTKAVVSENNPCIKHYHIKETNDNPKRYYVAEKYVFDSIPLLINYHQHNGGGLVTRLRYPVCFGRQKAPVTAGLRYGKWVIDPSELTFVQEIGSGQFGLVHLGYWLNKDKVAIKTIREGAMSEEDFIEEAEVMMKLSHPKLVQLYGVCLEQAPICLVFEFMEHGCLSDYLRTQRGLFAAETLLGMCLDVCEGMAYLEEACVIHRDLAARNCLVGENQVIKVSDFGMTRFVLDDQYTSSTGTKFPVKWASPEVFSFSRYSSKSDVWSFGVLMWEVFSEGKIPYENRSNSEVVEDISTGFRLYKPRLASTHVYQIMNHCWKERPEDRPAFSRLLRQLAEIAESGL
# Experimental: as §1
# The inhibitory activity against ITK was evaluated using ‘ADP-Glo™+ITK Kinase enzyme system’ kit (Promega Corporation). In a white 96-well plate, 10 ul of ITK enzyme prepared so as to have a final concentration of 0.4 ng/ul was mixed with 5 ul of compounds having a final concentration of 1 uM in the case of evaluating a single concentration of compound and a concentration of 1000, 300, 100, 30, 10, 3, 1, 0.3, 0.1 and 0.03 nM in the case of IC50 evaluation, and then reacted at room temperature for 15 minutes. To the plate on which reactions were completed, 5 ul of substrate and 5 ul of ATP prepared so as to have a final concentration of […] added and then allowed to react at 30° C. for 1 hour. All wells of the plate were treated with 25 ul of ADP-Glo™ reagent and then allowed to react at 30° C. for 40 minutes. After that, all wells were treated with 50 ul of kinase detection buffer, and then allowed to react at 30° C. for 30 minutes under light shielding conditions. For the plate on which all reactions were completed, luminescence was measured and the results were calculated. Evaluation was carried out in duplicate, and negative control and positive control were calculated depending on whether or not the enzyme was added without treatment of the compound. The IC50 was calculated based on the calculated values.
# T1 sequence (Q06187 whole entry): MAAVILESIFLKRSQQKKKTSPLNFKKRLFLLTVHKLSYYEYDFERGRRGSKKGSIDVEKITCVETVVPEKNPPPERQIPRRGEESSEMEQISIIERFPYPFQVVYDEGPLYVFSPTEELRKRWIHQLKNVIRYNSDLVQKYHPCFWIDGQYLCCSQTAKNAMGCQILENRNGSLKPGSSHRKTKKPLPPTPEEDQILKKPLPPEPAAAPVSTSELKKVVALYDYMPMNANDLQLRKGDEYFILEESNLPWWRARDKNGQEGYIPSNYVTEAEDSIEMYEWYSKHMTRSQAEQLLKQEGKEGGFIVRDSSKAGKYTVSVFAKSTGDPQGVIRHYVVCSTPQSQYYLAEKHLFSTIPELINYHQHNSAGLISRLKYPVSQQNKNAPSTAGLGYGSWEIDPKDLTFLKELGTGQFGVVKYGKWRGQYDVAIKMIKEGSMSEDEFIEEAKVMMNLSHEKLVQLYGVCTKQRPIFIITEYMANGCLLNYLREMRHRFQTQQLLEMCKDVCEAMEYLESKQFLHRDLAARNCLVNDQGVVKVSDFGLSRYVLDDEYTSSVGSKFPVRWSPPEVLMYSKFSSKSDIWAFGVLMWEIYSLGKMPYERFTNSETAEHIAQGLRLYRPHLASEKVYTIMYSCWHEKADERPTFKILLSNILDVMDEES
Compound,IC50 (BTK),IC50 (ITK)
"C=CC(=O)Nc1cccc(-c2cc(-c3ccccc3)cc(Nc3cc(C)[nH]n3)n2)c1 [Compound 23, N-(3-(6-(5-methyl-1H-pyrazol-3-ylamino)-4-phenylpyridin-2-yl)phenyl)acrylamide]",13.1 nM,128 nM
"C=CC(=O)N(CC)c1cccc(-c2cc(CN3CCOCC3)cc(Nc3ncc(C)s3)n2)c1 [Compound 66, N-ethyl-N-(3-(6-(5-methylthiazol-2-ylamino)-4-(morpholinomethyl)pyridin-2-yl)phenyl)acrylamide]",1.3 nM,3.7 nM
"C=CC(=O)Nc1cccc(-c2cc(C(=O)N3CCOCC3)cc(Nc3ncc(C)s3)n2)c1 [Compound 29, N-(3-(6-((5-methylthiazol-2-yl)amino)-4-(morpholine-4-carbonyl)pyridin-2-yl)phenyl)acrylamide]",5.2 nM,18.6 nM
"C=CC(=O)Nc1cccc(-c2cccc(Nc3cc(C4CCCC4)[nH]n3)n2)c1 [Compound 13, N-(3-(6-((5-cyclopentyl-1H-pyrazol-3-yl)amino)pyridin-2-yl)phenyl)acrylamide]",138 nM,266 nM
"C#CC(=O)Nc1ccc(-c2cc(Cc3ccccc3)cc(Nc3cc(C)[nH]n3)n2)cc1 [Compound 3, N-(4-(4-benzyl-6-((5-methyl-1H-pyrazol-3-yl)amino)pyridin-2-yl)phenyl)propiolamide]",45.9 nM,23.5 nM
"C=CC(=O)Nc1cccc(-c2cc(CN3CCN(CCOC)CC3)cc(Nc3ncc(C)s3)n2)c1 [Compound 49, N-(3-(4-((4-(2-methoxyethyl)piperazin-1-yl)methyl)-6-(5-methylthiazol-2-ylamino)pyridin-2-yl)phenyl)acrylamide]",1.3 nM,3.1 nM
"C=CC(=O)Nc1cccc(-c2cc(Cc3ccccc3)cc(Nc3cc(C)[nH]n3)n2)c1 [Compound 2, N-(3-(4-benzyl-6-(5-methyl-1H-pyrazol-3-ylamino)pyridin-2-yl)phenyl)acrylamide]",24.1 nM,88.2 nM
"C/C=C/C(=O)Nc1cccc(-c2cc(Cc3ccccc3)cc(Nc3cc(C)[nH]n3)n2)c1 [Compound 38, (E)-N-(3-(4-benzyl-6-(5-methyl-1H-pyrazol-3-ylamino)pyridin-2-yl)phenyl)but-2-enamide]",> 400 nM,536 nM
"C=CC(=O)Nc1cccc(-c2cc(C)cc(Nc3cc(C4CC4)[nH]n3)n2)c1 [Compound 25, N-(3-(6-((5-cyclopropyl-1H-pyrazol-3-yl)amino)-4-methylpyridin-2-yl)phenyl)acrylamide]",8.6 nM,59.3 nM
"C=CC(=O)Nc1cccc(-c2cccc(Nc3cc[nH]n3)n2)c1 [Compound 15, N-(3-(6-(1H-pyrazol-3-ylamino)pyridin-2-yl)phenyl)acrylamide]",18 nM,> 500 nM
"C=CC(=O)Nc1cccc(-c2cc(C(=O)N(C)C)cc(Nc3cc(C)[nH]n3)n2)c1 [Compound 21, 2-(3-acrylamidophenyl)-N,N-dimethyl-6-((5-methyl-1H-pyrazol-3-yl)amino)isonicotinamide]",52.6 nM,> 500 nM
"C=CC(=O)Nc1cccc(-c2cc(Cc3ccccc3)cc(Nc3cc(C4CCCC4)[nH]n3)n2)c1 [Compound 4, N-(3-(4-benzyl-6-(5-cyclopentyl-1H-pyrazol-3-ylamino)pyridin-2-yl)phenyl)acrylamide]",634 nM,91.4 nM
"C=CC(=O)Nc1cccc(-c2cc(Cc3cccnc3)cc(Nc3cc(C)[nH]n3)n2)c1 [Compound 72, N-(3-(6-((5-methyl-1H-pyrazol-3-yl)amino)-4-(pyridin-3-ylmethyl)pyridin-2-yl)phenyl)acrylamide]",3.3 nM,8 nM
"C=CC(=O)Nc1cccc(-c2cc(CN3CCOCC3)cc(NC(=O)NC)n2)c1 [Compound 67, N-(3-(6-(3-methylureido)-4-(morpholinomethyl)pyridin-2-yl)phenyl)acrylamide]",64.1 nM,> 200 nM
"C=CC(=O)Nc1cccc(-c2cc(CN3CCOCC3)cc(Nc3ncc(C)s3)n2)c1 [Compound 30, N (3(6(5-methylthiazol-2-ylamino)-4-(morpholinomethyl)pyridin-2-yl)phenyl)acrylamide]",3.1 nM,4.3 nM
